The record followed here is ChEMBL document CHEMBL1909046, “DrugMatrix in vitro pharmacology data”.

The first assay concerns the target T1, 3-hydroxy-3-methylglutaryl-coenzyme A reductase (Homo sapiens, UniProt P04035).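 Also: enzyme inhibition assay of HMG-CoA reductase using radiolabeled [14C]HMG-CoA as substrate; in other assays of this panel Not Active means under 50% inhibition at 10 µM.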
T1 sequence (P04035 whole entry): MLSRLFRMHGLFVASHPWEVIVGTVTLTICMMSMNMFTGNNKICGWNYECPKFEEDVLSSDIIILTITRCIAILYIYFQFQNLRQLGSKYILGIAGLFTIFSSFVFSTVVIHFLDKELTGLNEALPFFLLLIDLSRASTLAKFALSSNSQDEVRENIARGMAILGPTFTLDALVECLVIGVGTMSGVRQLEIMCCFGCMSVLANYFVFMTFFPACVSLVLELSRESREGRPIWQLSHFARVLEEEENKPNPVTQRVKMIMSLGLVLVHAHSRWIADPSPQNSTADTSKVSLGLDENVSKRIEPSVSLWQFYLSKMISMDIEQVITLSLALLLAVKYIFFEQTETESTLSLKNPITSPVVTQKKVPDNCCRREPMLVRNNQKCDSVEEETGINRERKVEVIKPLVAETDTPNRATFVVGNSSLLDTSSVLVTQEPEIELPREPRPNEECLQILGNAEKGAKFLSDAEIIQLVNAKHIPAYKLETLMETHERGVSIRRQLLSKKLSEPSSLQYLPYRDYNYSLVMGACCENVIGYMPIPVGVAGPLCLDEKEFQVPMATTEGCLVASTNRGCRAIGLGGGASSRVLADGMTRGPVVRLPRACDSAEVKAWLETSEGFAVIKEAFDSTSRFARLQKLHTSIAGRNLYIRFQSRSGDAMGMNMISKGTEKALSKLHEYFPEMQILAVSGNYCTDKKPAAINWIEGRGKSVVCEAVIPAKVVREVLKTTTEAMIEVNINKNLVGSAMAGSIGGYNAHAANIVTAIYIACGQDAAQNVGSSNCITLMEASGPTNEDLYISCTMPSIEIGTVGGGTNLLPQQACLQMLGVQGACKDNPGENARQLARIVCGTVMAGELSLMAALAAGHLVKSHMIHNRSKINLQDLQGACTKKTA
More on the design: species or system Escherichia coli.
Details: not given
For `CC1(C)S[C@@H]2[C@H](NC(=O)[C@H](N)c3ccccc3)C(=O)N2[C@H]1C(=O)O` [AMPICILLIN], the IC50 entry is reported as “Not Active”.
Same read-out and setting: the same measure for `COc1ccc(C2C(=O)c3ccccc3C2=O)cc1` [ANISINDIONE]: “Not Active”; for `O=C1O[C@H]([C@@H](O)CO)C(O)=C1O` [ASCORBIC ACID]: “Not Active”.
Still for that read-out and setting: the value for `CN1[C@@H]2CC[C@H]1C[C@@H](OC(=O)C(CO)c1ccccc1)C2` (stereo not given in full) [ATROPINE] was “Not Active”; that for `CC(C(=O)O)c1ccc2oc(-c3ccc(Cl)cc3)nc2c1` (stereo not given) [BENOXAPROFEN] was “Not Active”.
Turning to `COc1ccc2cc3[n+](cc2c1OC)CCc1cc2c(cc1-3)OCO2.[Cl-]` [BERBERINE CHLORIDE], the IC50 result is “Not Active”.
For the compound `O=C(O)CCNC(=O)c1ccccc1` [BETAMIPRON], the IC50 entry is “Not Active”.

A further assay has as its target T2, Vasoactive intestinal polypeptide receptor 1 (Homo sapiens, UniProt P32241). Also: in other assays of this panel Not Active means under 50% inhibition at 10 µM.
T2 sequence (P32241 whole entry): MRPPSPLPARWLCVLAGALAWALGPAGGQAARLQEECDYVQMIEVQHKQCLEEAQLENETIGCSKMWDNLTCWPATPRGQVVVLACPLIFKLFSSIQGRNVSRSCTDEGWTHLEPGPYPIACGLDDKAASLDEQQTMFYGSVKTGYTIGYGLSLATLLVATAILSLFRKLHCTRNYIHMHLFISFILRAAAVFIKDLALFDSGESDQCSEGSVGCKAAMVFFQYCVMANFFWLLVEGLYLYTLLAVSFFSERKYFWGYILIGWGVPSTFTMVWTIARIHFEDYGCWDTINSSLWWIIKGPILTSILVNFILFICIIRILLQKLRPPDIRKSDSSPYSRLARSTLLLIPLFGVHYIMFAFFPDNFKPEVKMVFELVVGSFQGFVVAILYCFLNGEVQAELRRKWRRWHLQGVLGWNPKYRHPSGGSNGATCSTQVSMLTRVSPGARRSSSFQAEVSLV
The class given is cell membranes, Membrane. Conditions: ht-29.
For `CC1(C)S[C@@H]2[C@H](NC(=O)[C@H](N)c3ccccc3)C(=O)N2[C@H]1C(=O)O` [AMPICILLIN], the IC50 entry is “Not Active”.
Regarding `COc1ccc(C2C(=O)c3ccccc3C2=O)cc1` [ANISINDIONE], the IC50 result is “Not Active”.
Regarding `O=C1O[C@H]([C@@H](O)CO)C(O)=C1O` [ASCORBIC ACID], the IC50 entry is “Not Active”.
The same measure, in the same setting: the value for `CN1[C@@H]2CC[C@H]1C[C@@H](OC(=O)C(CO)c1ccccc1)C2` (stereo not given in full) [ATROPINE] was “Not Active”.
With `CC(C(=O)O)c1ccc2oc(-c3ccc(Cl)cc3)nc2c1` (stereo not given) [BENOXAPROFEN], the IC50 result is reported as “Not Active”.
For `COc1ccc2cc3[n+](cc2c1OC)CCc1cc2c(cc1-3)OCO2.[Cl-]` [BERBERINE CHLORIDE], the IC50 entry is “Not Active”.
Still for that read-out and setting: the value for `O=C(O)CCNC(=O)c1ccccc1` [BETAMIPRON] was “Not Active”.

Test system in the next assay: not listed separately
Nature of the assay: DRUGMATRIX: Potassium Channel [KATP] radioligand binding (ligand: [3H] Glyburide). The class given is cell membranes, Membrane. Conditions: hit-t15; Not Active = under 50% inhibition at 10 µM.
Regarding `CC1(C)S[C@@H]2[C@H](NC(=O)[C@H](N)c3ccccc3)C(=O)N2[C@H]1C(=O)O` [AMPICILLIN], the IC50 result was “Not Active” and the Ki entry was “Not Active”.
Turning to `COc1ccc(C2C(=O)c3ccccc3C2=O)cc1` [ANISINDIONE], the IC50 entry is reported as “Not Active” and the Ki entry is “Not Active”.
For `O=C1O[C@H]([C@@H](O)CO)C(O)=C1O` [ASCORBIC ACID], the IC50 entry is listed as “Not Active” and the Ki entry is “Not Active”.
Take `CN1[C@@H]2CC[C@H]1C[C@@H](OC(=O)C(CO)c1ccccc1)C2` (stereo not given in full) [ATROPINE]: the IC50 entry is recorded as “Not Active” and the Ki result was “Not Active”.
`CC(C(=O)O)c1ccc2oc(-c3ccc(Cl)cc3)nc2c1` (stereo not given) [BENOXAPROFEN]: the IC50 entry was “Not Active” and the Ki result was “Not Active”.
Consider `COc1ccc2cc3[n+](cc2c1OC)CCc1cc2c(cc1-3)OCO2.[Cl-]` [BERBERINE CHLORIDE], for which the IC50 result was “Not Active” and the Ki entry is reported as “Not Active”.
Regarding `O=C(O)CCNC(=O)c1ccccc1` [BETAMIPRON], the IC50 result was “Not Active” and the Ki entry is on record as “Not Active”.

Test system in a further assay: not listed separately
Nature of the assay: DRUGMATRIX: Atrial Natriuretic Factor (ANF) radioligand binding (ligand: [125I] ANF (rat)). In kind it is cell membranes, Cavia porcellus, Dunkin-Hartley, Adrenal gland, Membrane. Particulars: Not Active = under 50% inhibition at 10 µM.
Take `CC1(C)S[C@@H]2[C@H](NC(=O)[C@H](N)c3ccccc3)C(=O)N2[C@H]1C(=O)O` [AMPICILLIN]: the IC50 result is “Not Active” and the Ki result was “Not Active”.
Take `COc1ccc(C2C(=O)c3ccccc3C2=O)cc1` [ANISINDIONE]: the IC50 entry was “Not Active” and the Ki result is “Not Active”.
Consider `O=C1O[C@H]([C@@H](O)CO)C(O)=C1O` [ASCORBIC ACID], for which the IC50 result was “Not Active” and the Ki result is reported as “Not Active”.
For the compound `CN1[C@@H]2CC[C@H]1C[C@@H](OC(=O)C(CO)c1ccccc1)C2` (stereo not given in full) [ATROPINE], the IC50 entry is “Not Active” and the Ki result was “Not Active”.
`CC(C(=O)O)c1ccc2oc(-c3ccc(Cl)cc3)nc2c1` (stereo not given) [BENOXAPROFEN]: the IC50 result is recorded as “Not Active” and the Ki entry was “Not Active”.
In the case of `COc1ccc2cc3[n+](cc2c1OC)CCc1cc2c(cc1-3)OCO2.[Cl-]` [BERBERINE CHLORIDE], the IC50 result is recorded as “Not Active” and the Ki result is recorded as “Not Active”.
For the compound `O=C(O)CCNC(=O)c1ccccc1` [BETAMIPRON], the IC50 entry is “Not Active” and the Ki result was “Not Active”.

The target of another assay is Sodium-dependent dopamine transporter (Homo sapiens, UniProt Q01959). Put plainly: DRUGMATRIX: Dopamine Transporter radioligand binding (ligand: [125I] RTI-55). The class given is cell membranes, CHO-K1, Membrane. Conditions: cho-k1; Not Active = under 50% inhibition at 10 µM.
Chain of Sodium-dependent dopamine transporter (Q01959 whole entry): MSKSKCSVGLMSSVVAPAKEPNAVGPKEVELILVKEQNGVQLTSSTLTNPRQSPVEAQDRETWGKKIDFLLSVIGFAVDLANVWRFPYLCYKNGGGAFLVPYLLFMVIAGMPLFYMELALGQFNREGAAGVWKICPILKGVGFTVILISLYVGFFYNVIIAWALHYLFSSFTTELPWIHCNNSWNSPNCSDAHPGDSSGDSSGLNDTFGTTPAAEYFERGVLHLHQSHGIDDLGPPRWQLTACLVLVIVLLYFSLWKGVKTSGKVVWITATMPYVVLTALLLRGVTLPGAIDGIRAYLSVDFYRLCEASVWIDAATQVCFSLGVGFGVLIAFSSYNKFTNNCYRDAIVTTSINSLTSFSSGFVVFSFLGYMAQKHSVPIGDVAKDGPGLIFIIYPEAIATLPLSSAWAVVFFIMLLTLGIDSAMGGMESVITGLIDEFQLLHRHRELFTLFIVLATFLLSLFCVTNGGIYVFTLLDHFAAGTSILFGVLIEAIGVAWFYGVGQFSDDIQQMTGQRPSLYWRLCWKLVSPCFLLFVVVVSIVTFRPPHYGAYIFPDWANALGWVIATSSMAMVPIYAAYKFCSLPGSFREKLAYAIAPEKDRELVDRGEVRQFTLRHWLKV
Take `CC1(C)S[C@@H]2[C@H](NC(=O)[C@H](N)c3ccccc3)C(=O)N2[C@H]1C(=O)O` [AMPICILLIN]: the IC50 result was “Not Active”.
The same measure, in the same setting: the value for `COc1ccc(C2C(=O)c3ccccc3C2=O)cc1` [ANISINDIONE] was “Not Active”; that for `O=C1O[C@H]([C@@H](O)CO)C(O)=C1O` [ASCORBIC ACID] was “Not Active”.
Turning to `CN1[C@@H]2CC[C@H]1C[C@@H](OC(=O)C(CO)c1ccccc1)C2` (stereo not given in full) [ATROPINE], the IC50 result is given as “Not Active”.
Turning to `CC(C(=O)O)c1ccc2oc(-c3ccc(Cl)cc3)nc2c1` (stereo not given) [BENOXAPROFEN], the IC50 entry was “Not Active”.
The same measure, in the same setting: the value for `COc1ccc2cc3[n+](cc2c1OC)CCc1cc2c(cc1-3)OCO2.[Cl-]` [BERBERINE CHLORIDE] was “Not Active”; that for `O=C(O)CCNC(=O)c1ccccc1` [BETAMIPRON] was “Not Active”.

Test system in the next assay: not listed separately
Put plainly: DRUGMATRIX: Glutamate, Kainate radioligand binding (ligand: [3H] Kainic acid). Conditions: Not Active = under 50% inhibition at 10 µM. In kind it is cell membranes, Rattus norvegicus, Wistar, Brain, Membrane.
In the case of `CC1(C)S[C@@H]2[C@H](NC(=O)[C@H](N)c3ccccc3)C(=O)N2[C@H]1C(=O)O` [AMPICILLIN], the IC50 result is recorded as “Not Active” and the Ki entry was “Not Active”.
As to `COc1ccc(C2C(=O)c3ccccc3C2=O)cc1` [ANISINDIONE], the IC50 entry is “Not Active” and the Ki entry is recorded as “Not Active”.
With `O=C1O[C@H]([C@@H](O)CO)C(O)=C1O` [ASCORBIC ACID], the IC50 entry is given as “Not Active” and the Ki entry is listed as “Not Active”.
As to `CN1[C@@H]2CC[C@H]1C[C@@H](OC(=O)C(CO)c1ccccc1)C2` (stereo not given in full) [ATROPINE], the IC50 result is listed as “Not Active” and the Ki entry was “Not Active”.
For `CC(C(=O)O)c1ccc2oc(-c3ccc(Cl)cc3)nc2c1` (stereo not given) [BENOXAPROFEN], the IC50 result is on record as “Not Active” and the Ki entry is listed as “Not Active”.
As for `COc1ccc2cc3[n+](cc2c1OC)CCc1cc2c(cc1-3)OCO2.[Cl-]` [BERBERINE CHLORIDE], the IC50 result is reported as “Not Active” and the Ki entry is “Not Active”.
Turning to `O=C(O)CCNC(=O)c1ccccc1` [BETAMIPRON], the IC50 result is recorded as “Not Active” and the Ki result is on record as “Not Active”.

A further assay deals with T3, Progesterone receptor (Bos taurus, UniProt Q690N0).
T3 sequence (Q690N0 whole entry): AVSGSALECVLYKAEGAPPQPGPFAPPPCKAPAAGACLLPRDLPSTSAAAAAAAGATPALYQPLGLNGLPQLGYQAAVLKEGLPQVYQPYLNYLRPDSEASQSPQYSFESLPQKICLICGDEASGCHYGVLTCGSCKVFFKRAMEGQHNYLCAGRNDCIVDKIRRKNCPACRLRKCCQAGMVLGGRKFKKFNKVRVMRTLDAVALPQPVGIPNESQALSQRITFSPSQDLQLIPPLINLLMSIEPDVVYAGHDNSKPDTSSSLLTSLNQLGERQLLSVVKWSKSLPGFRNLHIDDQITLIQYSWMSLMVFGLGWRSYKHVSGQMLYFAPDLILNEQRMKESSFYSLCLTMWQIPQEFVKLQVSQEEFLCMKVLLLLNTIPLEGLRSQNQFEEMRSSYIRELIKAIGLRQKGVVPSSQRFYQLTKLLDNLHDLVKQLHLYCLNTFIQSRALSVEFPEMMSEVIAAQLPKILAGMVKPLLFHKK
Nature of the assay: DRUGMATRIX: Progesterone radioligand binding (ligand: [3H] R-5020). The class given is tissue-based, Uterus. Conditions: Not Active = under 50% inhibition at 10 µM.
In the case of `CC1(C)S[C@@H]2[C@H](NC(=O)[C@H](N)c3ccccc3)C(=O)N2[C@H]1C(=O)O` [AMPICILLIN], the IC50 entry is recorded as “Not Active”.
Still for that read-out and setting: the value for `COc1ccc(C2C(=O)c3ccccc3C2=O)cc1` [ANISINDIONE] was “Not Active”; that for `O=C1O[C@H]([C@@H](O)CO)C(O)=C1O` [ASCORBIC ACID] was “Not Active”.
As to `CN1[C@@H]2CC[C@H]1C[C@@H](OC(=O)C(CO)c1ccccc1)C2` (stereo not given in full) [ATROPINE], the IC50 entry is “Not Active”.
Take `CC(C(=O)O)c1ccc2oc(-c3ccc(Cl)cc3)nc2c1` (stereo not given) [BENOXAPROFEN]: the IC50 result is recorded as “Not Active”.
Still for that read-out and setting: the value for `COc1ccc2cc3[n+](cc2c1OC)CCc1cc2c(cc1-3)OCO2.[Cl-]` [BERBERINE CHLORIDE] was “Not Active”.
Regarding `O=C(O)CCNC(=O)c1ccccc1` [BETAMIPRON], the IC50 result was “Not Active”.
